Values quoted from earlier work as cited in US8236821B2, “Substituted N-phenyl-5-phenyl-pyrazolin-3-yl amides as cannabinoid receptor antagonists/inverse agonists useful for treating obesity” (Jenrin Discovery, Inc., priority 2008, dated 2012).

Conditions: type 2 diabetes patients not treated with other anti-diabetic medications; six months of treatment; baseline value 7.9; placebo reduction 0.3%

In the case of `Cc1c(C(=O)NN2CCCCC2)nn(-c2ccc(Cl)cc2Cl)c1-c1ccc(Cl)cc1` [rimonabant], the HbA1c levels lowered is listed as 0.8%.
